Laboratory results: patent US12486237B2, “Polymorphic form of (-)-cibenzoline succinate” (CELLTRION INC., priority 2020, dated 2025)
Entries after “also recorded” stand apart in the source; their conditions may differ.

Experiments:
Type in all cases: physicochemical
[1] = Accelerated storage stability test (48-hour, accelerated aging conditions); conditions: 48-hour storage, AAC 40° C./75% RH
Procedure: For the crystalline and amorphous forms of (−)-cibenzoline succinate prepared according to Examples 1 to 4 above, a 48-hour storage stability test was performed under accelerated aging conditions (AAC; 40° C./75% RH).

[2] = Dynamic vapor sorption (DVS) analysis
Procedure: Dynamic vapor sorption was measured using a vapor sorption analyzer under the following conditions. • Manufacturer: Surface Measurement Systems Ltd, UK • Model: DVS Adventure-I system • Analysis of crystalline form of obtained solid: HT-XRPD Relative Humidity Cycle:
Relative humidity was cycled from 40% to 95% (sorption), from 95% to 0% (desorption) and back to 40% (sorption 2). In each step, the relative humidity was changed to 10% at a constant temperature of 25° C. The weight equilibrium was set to a dm/dt of 0.002%/min.
Dynamic vapor sorption data (water sorption isotherms) were measured by a vapor sorption analyzer.

[3] = Particle size analysis by laser diffraction particle analyzer; conditions: dispersant heptane
Procedure: The particle size of the crystalline form was measured with a laser diffraction particle size analyzer under the following conditions. • Manufacturer: Malvern Instruments Limited, UK • Model: Mastersizer 2000 • Sampler: Hydro 2000 G/S Instrumental Conditions: • Particle reflection index (RI)): 1.52 • Dispersant: heptane • Absorbance: 0.1 • Refractive index of dispersant: 1.39 • Analysis model: general purpose • Sensitivity: enhanced • Absorption limit: 10-15% • Measurement time: 30 seconds (repeated three times per sample) • Agitation speed: 3500 RPM Sample Preparation:
About 150 mg of the sample was dissolved in 20 ml of 0.2% Span 85-containing heptane in a 50 ml beaker. The solution was sonicated for about 10 seconds and placed in a sampler, and when the absorption limit reached 10 to 15%, measurement was performed.
The particle size of crystalline form 3 of (−)-cibenzoline succinate prepared according to Example 4 was measured by a laser diffraction particle analyzer.

[4] = Long-term storage stability at 60° C. evaluated by HT-XRPD, DSC, TGMS and UPLC
Procedure: The high-throughput XRD of the crystalline form was analyzed under the following conditions. • Manufacturer: Bruker, USA • Model: General Area Detector Diffraction System (GADDS) • Measurement temperature: 25° C. (RT) • 2θ measurement range: 1.5 to 41.5° • Exposure time: 90 seconds • Others: Measurement of intensity and geometric parameters with a V A NTEC-500 gas area detector (Bruker, USA) 9. High-Resolution X-Ray Diffraction (XRD) Analysis
Thermogravimetric analysis coupled with mass spectroscopy for the crystalline form was performed under the following conditions. • Manufacturer: Mettler-Toledo GmbH, Switzerland • Model: TGA/DSC 3+ STARe system • Temperature range: 25 to 300° C. • Temperature rise rate: 10° C./min • Mass spectrometer: mass spectrometer Omnistar GSD 301 T2 (Pfeiffer Vacuum GmbH, Germany) 11. Differential Scanning Calorimetry (DSC) Analysis
The calorimetric analysis of the crystalline form was performed by differential scanning calorimetry (DSC) under the following conditions. • Manufacturer: Metter Toredo GmbH, Switzerland • Model: heat flux DSC3+ STARe system • Temperature rise rate: 10° C./min • Temperature range: 25 to 300° C. • N2 flow rate: 50 ml/min. 12. Karl Fischer Titration Analysis
The mass of the crystalline form was measured by ultra-performance liquid chromatography-mass spectrometer (UPLC-MS) under the following conditions. • Manufacturer: Agilent, USA • Model: Agilent 1290 • Detector 1: UV detector set at 224 nm • Detector 2: MSD XT in Positive Scan Mode • Measurement temperature: 25° C. (RT) • Column: Agilent Eclipse Plus C18 HD (50×2.1 mm; 1.8 μm) • Column temperature: 35° C. • Flow cell: 10 mm path • Gradient: Mobile phase A: 10 mM Ammonium acetate/Mobile phase B: Acetonitrile • Flow: 0.8 ml/min • Sample concentration: 0.8 mg/ml • Solvent: Water: Acetonitrile (50:50 v/v) • Injection: 1 μl • Retention time: 1.54 min 15. Analysis of Particle Size Distribution (PSD)
Crystalline form 3 of (−)-cibenzoline succinate prepared according to Example 4 was stored at 60° C. for 4 weeks, and then the long-term storage stability thereof was evaluated by HT-XRPD, DSC, TGMS and UPLC analysis.

[5] = default reference value (before storage)

O=C(O)CCC(=O)O.c1ccc(C2(c3ccccc3)C[C@@H]2C2=NCCN2)cc1 [Amorphous, (−)-cibenzoline succinate]
Accelerated storage stability [1]: Unstable - presence of different

O=C(O)CCC(=O)O.c1ccc(C2(c3ccccc3)C[C@@H]2C2=NCCN2)cc1 [Crystalline form 1, (−)-cibenzoline succinate]
Accelerated storage stability [1]: Unstable - presence of different

O=C(O)CCC(=O)O.c1ccc(C2(c3ccccc3)C[C@@H]2C2=NCCN2)cc1 [Crystalline form 2, (−)-cibenzoline succinate]
Accelerated storage stability [1]: Unstable - presence of different

O=C(O)CCC(=O)O.c1ccc(C2(c3ccccc3)C[C@@H]2C2=NCCN2)cc1 [Crystalline form 3, (−)-cibenzoline succinate]
water absorption rate at 80% relative humidity ([2]; 25° C., 80% relative humidity): 0.2% | water absorbed in sorption 2 ([2]; 25° C., relative humidity 0% back to 40%): absorbed almost no water | water absorption rate in the sorption cycle ([2]; 25° C., relative humidity 40% to 95%): up to 0.3% | release of absorbed water in the desorption cycle ([2]; 25° C., relative humidity 95% to 0%): completely released | crystalline form of sample obtained after DVS (HT-XRPD) ([2]; after DVS cycle): maintained in Form D | Hygroscopicity classification (European Pharmacopeia 5.0, 5.11) ([2]; based on water absorption at 80% relative humidity): non-hygroscopic; also recorded: non-hydroscopic | D10 [3]: 8.80 μm | D50 [3]: 30.44 μm | D90 [3]: 60.72 μm | D50 ([3]; listed as crystalline form 3): 30.44 μm | Chemical purity [4, 5]: 100% | DSC [4, 5]: 193.2 °C | TGA mass loss rate [4, 5]: 0.6% | Long-term storage stability (crystalline form and chemical purity) ([4]; stored at 60° C. for 4 weeks): stable without changes in the crystalline form and chemical purity | Chemical purity ([4]; stored at 60° C., week 1): 100% | DSC ([4]; stored at 60° C., week 1): 191.2 °C | TGA mass loss rate ([4]; stored at 60° C., week 1): 0.2% | Chemical purity ([4]; stored at 60° C., week 4): 100% | DSC ([4]; stored at 60° C., week 4): 191.1 °C | TGA mass loss rate ([4]; stored at 60° C., week 4): 0.6% | Accelerated storage stability [1]: Stable - presence of only | Accelerated storage stability ([1]; listed as crystalline form 3): stable

O=C(O)CCC(=O)O.c1ccc(C2(c3ccccc3)C[C@@H]2C2=NCCN2)cc1 [Reference Example, (−)-cibenzoline succinate]
D10 [3]: 17.10 μm | D50 [3]: 127.82 μm | D90 [3]: 307.56 μm
